PubChem BioAssay (NCI)
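Following 48 hours of exposure in 96-well plates, responses at five concentrations were used to interpolate endpoints linearly. The concentration for 50% growth inhibition is given as GI50. TGI marks complete inhibition of growth.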

Legend:
Test in all cases: NCI-60 cell line screen, 48 h
HCT-116 colon = test system: HCT-116 colon
HL-60(TB) leukemia = test system: HL-60(TB) leukemia
HOP-92 NSCLC = test system: HOP-92 NSCLC
HS 578T breast = test system: HS 578T breast
K-562 leukemia = test system: K-562 leukemia
M14 melanoma = test system: M14 melanoma
MCF7 breast = test system: MCF7 breast
MDA-MB-231 breast = test system: MDA-MB-231 breast
NCI-H460 lung = test system: NCI-H460 lung
NCI-H522 lung = test system: NCI-H522 lung
OVCAR-4 ovarian = test system: OVCAR-4 ovarian
SN12C renal = test system: SN12C renal
SNB-75 CNS = test system: SNB-75 CNS
T-47D breast = test system: T-47D breast
U251 CNS = test system: U251 CNS

Compound: O=C(O)C(C1NCCS1)N1C(=O)c2ccccc2C1=O (stereo unspecified)
- TGI (HCT-116 colon): > 100 µM
- TGI (HL-60(TB) leukemia): > 100 µM
- TGI (HOP-92 NSCLC): > 100 µM
- TGI (HS 578T breast): > 100 µM
- TGI (K-562 leukemia): > 100 µM
- TGI (M14 melanoma): > 100 µM
- TGI (MCF7 breast): > 100 µM
- TGI (MDA-MB-231 breast): > 100 µM
- TGI (NCI-H460 lung): > 100 µM
- TGI (NCI-H522 lung): > 100 µM
- TGI (OVCAR-4 ovarian): > 100 µM
- TGI (SN12C renal): > 100 µM
- TGI (SNB-75 CNS): > 100 µM
- TGI (T-47D breast): > 100 µM
- TGI (U251 CNS): > 100 µM

Compound: COc1cccc(/C=N/[N+](C)(C)C)c1O
- TGI (HCT-116 colon): > 10 µM
- TGI (HL-60(TB) leukemia): > 10 µM
- TGI (HS 578T breast): > 10 µM
- TGI (K-562 leukemia): > 10 µM
- TGI (M14 melanoma): > 10 µM
- TGI (MCF7 breast): > 10 µM
- TGI (MDA-MB-231 breast): > 10 µM
- TGI (NCI-H460 lung): > 10 µM
- TGI (NCI-H522 lung): > 10 µM
- TGI (OVCAR-4 ovarian): > 10 µM
- TGI (SN12C renal): > 10 µM
- TGI (SNB-75 CNS): > 10 µM
- TGI (T-47D breast): > 10 µM
- TGI (U251 CNS): > 10 µM

Compound: Cc1ccnn1CCc1ccc(Cl)cc1Cl
- TGI (HCT-116 colon): > 100 µM
- TGI (HL-60(TB) leukemia): 42.4 µM
- TGI (HS 578T breast): > 100 µM
- TGI (K-562 leukemia): > 100 µM
- TGI (M14 melanoma): > 100 µM
- TGI (MCF7 breast): > 100 µM
- TGI (MDA-MB-231 breast): > 100 µM
- TGI (NCI-H460 lung): > 100 µM
- TGI (OVCAR-4 ovarian): > 100 µM
- TGI (SN12C renal): > 100 µM
- TGI (SNB-75 CNS): > 100 µM
- TGI (T-47D breast): > 100 µM
- TGI (U251 CNS): > 100 µM

Compound: COc1ccc2[nH]c(=O)cc(C)c2c1[N+](=O)[O-]
- TGI (HCT-116 colon): > 100 µM
- TGI (HL-60(TB) leukemia): > 100 µM
- TGI (HOP-92 NSCLC): > 100 µM
- TGI (K-562 leukemia): > 100 µM
- TGI (M14 melanoma): > 100 µM
- TGI (NCI-H460 lung): > 100 µM
- TGI (NCI-H522 lung): > 100 µM
- TGI (OVCAR-4 ovarian): > 100 µM
- TGI (SN12C renal): > 100 µM
- TGI (SNB-75 CNS): 55.7 µM
- TGI (U251 CNS): > 100 µM

Compound: COc1cc2c(/C=C3/C(=O)Nc4cc(C)c(O)cc43)c(Cl)[nH]c2cc1C
- TGI (HCT-116 colon): 8.84 µM
- TGI (HOP-92 NSCLC): > 100 µM
- TGI (HS 578T breast): 7.35 µM
- TGI (K-562 leukemia): 3.9 µM
- TGI (M14 melanoma): 5.89 µM
- TGI (MCF7 breast): 13.4 µM
- TGI (MDA-MB-231 breast): 8.99 µM
- TGI (NCI-H460 lung): 8.89 µM
- TGI (NCI-H522 lung): 11.1 µM
- TGI (OVCAR-4 ovarian): 24.1 µM
- TGI (SN12C renal): 6.07 µM
- TGI (SNB-75 CNS): 7.6 µM
- TGI (T-47D breast): 18.2 µM
- TGI (U251 CNS): 15.7 µM

Compound: CC(C)(C(=O)N(C(=O)N1CCN(c2ccccc2)CC1)S(=O)(=O)c1ccccc1)c1ccc(Cl)cc1
- TGI (HCT-116 colon): > 100 µM
- TGI (HL-60(TB) leukemia): > 100 µM
- TGI (HOP-92 NSCLC): 53.6 µM
- TGI (HS 578T breast): > 100 µM
- TGI (K-562 leukemia): > 100 µM
- TGI (M14 melanoma): > 100 µM
- TGI (MCF7 breast): > 100 µM
- TGI (MDA-MB-231 breast): > 100 µM
- TGI (NCI-H460 lung): > 100 µM
- TGI (NCI-H522 lung): 26.3 µM
- TGI (OVCAR-4 ovarian): > 100 µM
- TGI (SN12C renal): > 100 µM
- TGI (SNB-75 CNS): > 100 µM
- TGI (T-47D breast): > 100 µM
- TGI (U251 CNS): > 100 µM

Compound: CCOC(=O)C1=C(C)N(Cc2ccccc2)C2(O)C=CC(=O)C3C(=O)N(c4ccccc4)C(=O)C132 (stereo unspecified)
- TGI (HCT-116 colon): 2.49 µM
- TGI (HL-60(TB) leukemia): 4.98 µM
- TGI (HOP-92 NSCLC): 7.96 µM
- TGI (HS 578T breast): 34 µM
- TGI (K-562 leukemia): 27.3 µM
- TGI (M14 melanoma): 3.92 µM
- TGI (MCF7 breast): 12.7 µM
- TGI (MDA-MB-231 breast): 12.1 µM
- TGI (NCI-H460 lung): 4.77 µM
- TGI (NCI-H522 lung): 3.32 µM
- TGI (OVCAR-4 ovarian): 6.45 µM
- TGI (SN12C renal): 10.6 µM
- TGI (T-47D breast): 9.27 µM
- TGI (U251 CNS): 11.8 µM

Compound: C=C1C(=O)OC2/C=C(CO)/C=C\C3OC3(C)CC(OC(=O)/C(C)=C/COC(C)=O)C12 (stereo unspecified)
- TGI (HCT-116 colon): 2.83 µM
- TGI (HL-60(TB) leukemia): 1.48 µM
- TGI (HOP-92 NSCLC): 5.94 µM
- TGI (HS 578T breast): 11.8 µM
- TGI (K-562 leukemia): > 20.7 µM
- TGI (M14 melanoma): 5.64 µM
- TGI (MCF7 breast): 16.4 µM
- TGI (MDA-MB-231 breast): 9.13 µM
- TGI (NCI-H460 lung): 15.3 µM
- TGI (NCI-H522 lung): 1.81 µM
- TGI (OVCAR-4 ovarian): 16.4 µM
- TGI (SN12C renal): 5.63 µM
- TGI (SNB-75 CNS): 20.7 µM
- TGI (T-47D breast): 7.53 µM
- TGI (U251 CNS): 14.5 µM

Compound: C=CCn1c(C)nc2cc(Nc3nc(N4CCCC4)nc4nc[nH]c34)ccc21
- GI50 (HL-60(TB) leukemia): > 100 µM
- TGI (HL-60(TB) leukemia): > 100 µM
- GI50 (HOP-92 NSCLC): > 100 µM
- TGI (HOP-92 NSCLC): > 100 µM
- GI50 (M14 melanoma): 29.6 µM
- TGI (M14 melanoma): > 100 µM
- GI50 (NCI-H522 lung): > 100 µM
- TGI (NCI-H522 lung): > 100 µM

Compound: CS(C)(=O)=Nn1c(=O)n2n(c1=O)[C@H]1CC[C@@H]2C1
- TGI (HL-60(TB) leukemia): > 100 µM
- TGI (HOP-92 NSCLC): > 100 µM
- TGI (HS 578T breast): > 100 µM
- TGI (K-562 leukemia): > 100 µM
- TGI (M14 melanoma): > 100 µM
- TGI (MCF7 breast): > 100 µM
- TGI (MDA-MB-231 breast): > 100 µM
- TGI (NCI-H460 lung): > 100 µM
- TGI (NCI-H522 lung): > 100 µM
- TGI (SNB-75 CNS): > 100 µM
- TGI (T-47D breast): > 100 µM
- TGI (U251 CNS): > 100 µM

Compound: O=C1C=CC2(C=C1)O[C@H](CCc1ccccc1)[C@@H](CCc1ccccc1)O2
- TGI (HCT-116 colon): > 100 µM
- TGI (HL-60(TB) leukemia): > 100 µM
- TGI (HOP-92 NSCLC): 94.3 µM
- TGI (HS 578T breast): > 100 µM
- TGI (K-562 leukemia): > 100 µM
- TGI (M14 melanoma): > 100 µM
- TGI (MCF7 breast): > 100 µM
- TGI (MDA-MB-231 breast): > 100 µM
- TGI (NCI-H460 lung): > 100 µM
- TGI (OVCAR-4 ovarian): > 100 µM
- TGI (SN12C renal): > 100 µM
- TGI (SNB-75 CNS): > 100 µM
- TGI (T-47D breast): > 100 µM
- TGI (U251 CNS): 38.2 µM

Compound: CSc1nc2c(ncn2C2OC(CO)C(O)C(O)C2O)c(=O)n1C (stereo unspecified)
- TGI (HCT-116 colon): > 100 µM
- TGI (HL-60(TB) leukemia): > 100 µM
- TGI (HOP-92 NSCLC): > 100 µM
- TGI (K-562 leukemia): > 100 µM
- TGI (MCF7 breast): > 100 µM
- TGI (NCI-H460 lung): > 100 µM
- TGI (NCI-H522 lung): > 100 µM
- TGI (OVCAR-4 ovarian): > 100 µM
- TGI (SN12C renal): > 100 µM
- TGI (SNB-75 CNS): > 100 µM
- TGI (U251 CNS): > 100 µM
